HELM strings list units from the 5' end as sugar, base in round brackets, then linkage (d deoxyribose, r ribose, m 2'-O-methyl, p phosphodiester). Strings are as the collection lists them; they lack the last nucleoside at the 3' end of the tested compound. [moe] = 2'-O-(2-methoxyethyl) (MOE); [sp] = phosphorothioate linkage; [m5C] = 5-methylcytosine

In the data set the target is SCN2A. Nature of the data set: mouse, dose not given. The following applies: ASO.
“RNA1{[moe](G)[sp].[moe](A)p.[moe](A)p.[moe](T)p.[moe](T)p.d([m5C])[sp].d(T)[sp].d(A)[sp].d(T)[sp].d(T)[sp].d(T)[sp].d(T)[sp].d(A)[sp].d(T)[sp].d(A)[sp].[moe](A)p.[moe](A)p.[moe](T)[sp].[moe](G)}$$$$ (last 3' nucleoside missing)”: the 3 h FOB score was 1 score 0-7.

“RNA1{[moe](T)[sp].[moe](T)p.[moe]([m5C])p.[moe](T)p.[moe](G)p.[moe]([m5C])p.d(A)[sp].d(T)[sp].d(G)[sp].d(T)[sp].d(A)[sp].d(A)[sp].d([m5C])[sp].d([m5C])[sp].d(T)[sp].d(T)[sp].[moe](T)p.[moe](A)[sp].[moe](T)}$$$$ (last 3' nucleoside missing)” registered a 3 h FOB score of 0 score 0-7. “RNA1{[moe]([m5C])[sp].[moe](T)p.[moe](G)p.[moe]([m5C])p.[moe](A)p.[moe](T)[sp].d(G)[sp].d(T)[sp].d(A)[sp].d(A)[sp].d([m5C])[sp].d([m5C])[sp].d(T)[sp].d(T)[sp].[moe](T)p.[moe](A)[sp].[moe](T)}$$$$ (last 3' nucleoside missing)” yielded a 3 h FOB score of 0 score 0-7. As for “RNA1{[moe](G)[sp].[moe](T)p.[moe](T)p.[moe](T)p.d(T)[sp].d(T)[sp].d(T)[sp].d([m5C])[sp].d(A)[sp].d(T)[sp].d(T)[sp].d(G)[sp].d([m5C])[sp].d(A)[sp].[moe](T)p.[moe]([m5C])p.[moe]([m5C])p.[moe](T)[sp].[moe]([m5C])}$$$$ (last 3' nucleoside missing)”, the figure is 1 score 0-7; as for “RNA1{[moe](G)[sp].[moe](A)p.[moe]([m5C])p.[moe]([m5C])p.[moe](G)p.[moe](A)p.d(A)[sp].d(T)[sp].d(T)[sp].d([m5C])[sp].d(T)[sp].d(A)[sp].d(T)[sp].d(T)[sp].d(T)[sp].d(T)[sp].[moe](A)p.[moe](T)[sp].[moe](A)}$$$$ (last 3' nucleoside missing)”, 0 score 0-7; as for “RNA1{[moe](A)[sp].[moe](T)p.[moe](G)p.[moe](G)p.[moe](T)p.d(T)[sp].d(G)[sp].d(G)[sp].d(A)[sp].d(A)[sp].d(A)[sp].d(T)[sp].d(A)[sp].d([m5C])[sp].d(A)[sp].[moe](G)p.[moe]([m5C])p.[moe](T)[sp].[moe](G)}$$$$ (last 3' nucleoside missing)”, 1 score 0-7. Substance “RNA1{[moe](A)[sp].[moe](G)p.[moe]([m5C])p.[moe](A)p.d(T)[sp].d(A)[sp].d(T)[sp].d(T)[sp].d([m5C])[sp].d(T)[sp].d(A)[sp].d(A)[sp].d([m5C])[sp].d(A)[sp].[moe](T)p.[moe](G)p.[moe](G)p.[moe](T)[sp].[moe]([m5C])}$$$$ (last 3' nucleoside missing)” came in with a 3 h FOB score of 0 score 0-7. As for “RNA1{[moe](A)[sp].[moe](T)p.[moe]([m5C])p.[moe](A)p.d([m5C])[sp].d(T)[sp].d(T)[sp].d(T)[sp].d([m5C])[sp].d(A)[sp].d(T)[sp].d([m5C])[sp].d([m5C])[sp].d(A)[sp].[moe]([m5C])p.[moe](G)p.[moe](A)p.[moe]([m5C])[sp].[moe](A)}$$$$ (last 3' nucleoside missing)”, the figure is 1 score 0-7; as for “RNA1{[moe](T)[sp].[moe](A)p.[moe](A)p.[moe](T)p.d([m5C])[sp].d(A)[sp].d([m5C])[sp].d(T)[sp].d(T)[sp].d(T)[sp].d([m5C])[sp].d(A)[sp].d(T)[sp].d([m5C])[sp].[moe]([m5C])p.[moe](A)p.[moe]([m5C])p.[moe](G)[sp].[moe](A)}$$$$ (last 3' nucleoside missing)”, 0 score 0-7. Substance “RNA1{[moe](G)[sp].[moe](A)p.[moe]([m5C])p.[moe]([m5C])p.d(G)[sp].d(A)[sp].d(A)[sp].d(T)[sp].d(T)[sp].d([m5C])[sp].d(T)[sp].d(A)[sp].d(T)[sp].d(T)[sp].[moe](T)p.[moe](T)p.[moe](A)p.[moe](T)[sp].[moe](A)}$$$$ (last 3' nucleoside missing)” registered a 3 h FOB score of 0 score 0-7.
